Experimental findings from ChEMBL document CHEMBL1159233, “Antitumor agents, 154. Cytotoxic and antimitotic flavonols from Polanisia dodecandra” (J Nat Prod, 1995) are described below.

Converted amounts (≈) assume the structure as drawn. The source made the active and inactive calls. The rule behind the calls is not given here.

One assay has as its system SNB-75. Kind of assay: Growth inhibition of human SNB75 cells. It counts as functional.
The subject of the next assay is NCI-H460. Kind of assay: Growth inhibition of human NCI-H460 cells. Type of assay: functional.
Assay [1] in a line: Displacement of [3H]colchicine from tubulin at 50 uM.
A short description of assay [2]: Inhibition of tubulin polymerization.
For a further assay, the system named is HL-60(TB). Nature of the assay: Growth inhibition of human HL-60(TB) cells. Type of assay: functional.
The test system of a further assay is OVCAR-3. Nature of the assay: Growth inhibition of human OVCAR-3 cells. Type of assay: functional.
In the next assay the test system is HOP-62. Kind of assay: Growth inhibition of human HOP62 cells. It counts as functional.
For another assay, the system named is TE-671. Kind of assay: Cytotoxicity against human TE671 cells. It counts as functional. As to conditions: read-out: ED50 (the source's name).
Assay [3] in a line: Growth inhibition of human DMS144 cells. Type of assay: functional.
The next assay relates to SK-MEL-5. Kind of assay: Growth inhibition of human SK-MEL-5 cells. It counts as functional.
In another assay the test system is SF-539. Nature of the assay: Growth inhibition of human SF539 cells. Type of assay: functional.
In the next assay the test system is NCI-H226. Nature of the assay: Growth inhibition of human NCI-H226 cells. It counts as functional.
The test system of a further assay is HCT-116. Kind of assay: Growth inhibition of human HCT116 cells. Type of assay: functional.
Assay [4] can be described thus: Displacement of [3H]colchicine from tubulin at 5 uM. On the technique in general: Loss of bound radioactivity is the signal in a displacement assay; it reports binding, not function.
In a further assay the test system is A549. Kind of assay: Cytotoxicity against human A549 cells. Type of assay: functional.
The subject of a further assay is U-251. Kind of assay: Growth inhibition of human U251 cells. It counts as functional.
The test system of the next assay is NCI-H522. Kind of assay: Growth inhibition of human NCI-H522 cells. It counts as functional.
The next assay has as its system SK-OV-3. Kind of assay: Growth inhibition of human SKOV3 cells. It counts as functional.
Assay [5] in a line: Cytotoxicity against human PRMI7951 cells. Type of assay: functional. As to conditions: read-out: ED50 (the source's name).
The subject of another assay is KB. Nature of the assay: Cytotoxicity against human KB cells. It counts as functional. As to conditions: read-out: ED50 (the source's name).
For the next assay, the system named is SF-268. Nature of the assay: Growth inhibition of human SF268 cells. It counts as functional.
The test system of the next assay is HCT-8. Nature of the assay: Cytotoxicity against human HCT8 cells. It counts as functional.
For a further assay, the system named is UO-31. Nature of the assay: Growth inhibition of human UO31 cells. It counts as functional.
For a further assay, the system named is SR. Kind of assay: Growth inhibition of human SR cells. Type of assay: functional.
The test system of another assay is P388. Kind of assay: Cytotoxicity against mouse P388 cells. As to conditions: read-out: ED50 (the source's name). It counts as functional.
Where [6] appears, read: read-out: ED50 (the source's name).

For `COc1ccc(-c2oc3c(OC)c(OC)c(OC)c(O)c3c(=O)c2OC)cc1O`, the GI50 (usually the concentration that inhibits growth by half) was under 10 nM with SNB-75; under 10 nM in the assay with NCI-H460; under 10 nM in the assay on HL-60(TB); under 10 nM in the assay on OVCAR-3; 47.9 nM in the assay with HOP-62; under 10 nM in assay [3]. The GI50 with SK-MEL-5 was under 10 nM; in the assay with SF-539 it was under 10 nM; in the assay with NCI-H226 it was 61.7 nM; in the assay on HCT-116 it was under 10 nM; with U-251, under 10 nM; with NCI-H522, under 10 nM. Moreover, the GI50 in the assay on SK-OV-3, with SF-268, with UO-31 and in the assay on SR was under 10 nM throughout. For the same compound, the TGI in the assay with SNB-75 (read-out: pTGI) is under 10 nM; with NCI-H460 (read-out: pTGI (converted)), 138 nM; with HL-60(TB) (read-out: pTGI), under 10 nM; with OVCAR-3 (read-out: pTGI), under 10 nM; in the assay on HOP-62 (read-out: pTGI (converted)), 4790 nM; in assay [3] (read-out: pTGI) it was under 10 nM. The TGI in the assay on SK-MEL-5 (read-out: pTGI (converted)) is 1000 nM; in the assay with SF-539 (read-out: pTGI), under 10 nM; with NCI-H226 (read-out: pTGI (converted)) it was 363 nM; in the assay with HCT-116 (read-out: pTGI (converted)) it was 123 nM; in the assay on U-251 (read-out: pTGI (converted)) it was 229 nM; with NCI-H522 (read-out: pTGI) it was under 10 nM. Also, the TGI is 417 nM in the assay on SK-OV-3 (read-out: pTGI (converted)), 2820 nM in the assay with SF-268 (read-out: pTGI (converted)), 5750 nM in the assay with UO-31 (read-out: pTGI (converted)) and 112 nM with SR (read-out: pTGI (converted)). Moreover, the results for the Activity in assay [1] and in [4] were 89% and 59%, respectively. In [2], the IC50 (commonly the concentration that inhibits the measured activity by half) is 830 nM. Besides, the EC50 turned out to be 0.069 µg/mL (≈ 0.171 µM) in the assay with TE-671; 0.6 µg/mL (≈ 1.48 µM) with A549 (setting [6]); 0.55 µg/mL (≈ 1.36 µM) in assay [5]; 0.045 µg/mL (≈ 0.111 µM) with KB; 4.4 µg/mL (≈ 10.9 µM) in the assay with HCT-8 (setting [6]); 0.055 µg/mL (≈ 0.136 µM) in the assay with P388.

For `COc1cc(-c2oc3c(OC)c(OC)c(OC)c(O)c3c(=O)c2OC)ccc1O`, the EC50 with TE-671 was found to be 0.98 µg/mL (≈ 2.42 µM); in assay [5], 5.93 µg/mL (≈ 14.7 µM); in the assay on KB, 8.38 µg/mL (≈ 20.7 µM); in the assay with P388 it was 6.52 µg/mL (≈ 16.1 µM). For the same compound, the result in the assay with A549 and in the assay on HCT-8 was inactive.

The compound `COc1cc([C@@H]2c3cc4c(cc3[C@H](O)[C@H]3COC(=O)[C@H]23)OCO4)cc(OC)c1OC` showed an Activity in assay [4] of 82%.

As for `COc1ccc(-c2oc3cc(O)c(OC)c(O)c3c(=O)c2OC)cc1O` [CENTAUREIDIN], the results for the Activity in assay [1] and in assay [4] were 76% and 35%, respectively. Also, the IC50 in assay [2] turned out to be 2000 nM.
